Assay results published in patent US20240132464A1, “HETEROCYCLIC COMPOUNDS AS E3 LIGASE INHIBITORS” (Accutar Biotechnology Inc., priority 2022, published 2024).

Target: T1, GID4 (Uniprot ID: Q81VV7, residues 124-289) (Homo sapiens, UniProt Q8IVV7)
T1 construct: GID4 (Uniprot ID: Q81VV7, residues 124-289)
T1 sequence (Q8IVV7 124-289): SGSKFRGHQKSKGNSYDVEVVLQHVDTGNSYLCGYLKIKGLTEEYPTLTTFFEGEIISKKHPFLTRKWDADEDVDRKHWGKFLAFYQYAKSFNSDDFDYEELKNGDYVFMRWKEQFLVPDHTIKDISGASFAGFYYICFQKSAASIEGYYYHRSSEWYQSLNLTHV
Assay: GID4 competitive binding assay (AlphaScreen, GID4/degron peptide PGLW)
Details: 24 nM GID4, 48 nM biotinylated degron peptide PGLW, 4° C., read-out: IC50 (Inhibition of GID4/Degron binding by test compounds)
How it was run: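 His-tagged human GID4 (residues 124-289, 24 nM) pre-incubated 2 h at 4 °C with 48 nM biotinylated PGLW peptide and compound in HEPES pH 7.5 buffer, 2% DMSO (final). AlphaScreen streptavidin donor/Ni-NTA acceptor beads added for 1 h; IC50 from nonlinear fit of % inhibition versus DMSO.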

Compound	IC50
CC(C)c1cc(N2CCCCC(O)(c3ccccc3Br)C2)nc(N)n1 (stereo not shown) [Compound 226, 1-(2-amino-6-isopropylpyrimidin-4-yl)-3-(2-bromophenyl)azepan-3-ol]	> 5 µM
CNc1nc(C)cc(Nc2cccc(-c3cnccn3)c2)n1 [Compound 190, N2,6-dimethyl-N4-(3-(pyrazin-2-yl)phenyl)pyrimidine-2,4-diamine]	> 5 µM
CC(C)c1nc(N)cc(N2CCN[C@@H](c3ccccc3Br)C2)n1 (racemic) [Compound 75, (S/R)-6-(3-(2-bromophenyl)piperazin-1-yl)-2-isopropylpyrimidin-4-amine]	0.5 to 5 µM
CNc1nc(C(C)C)cc(N2CCNC(c3ccccc3Br)C2)n1 (single isomer, unassigned) [Compound 152, (R/S)-4-(3-(2-bromophenyl)piperazin-1-yl)-6-isopropyl-N-methylpyrimidin-2-amine]	0.5 to 5 µM
Nc1cc(N2CCCC(n3cnc4ccccc43)C2)nc(N)n1 (stereo not shown) [Compound 260, 6-(3-(1H-benzo[d]imidazol-1-yl)piperidin-1-yl)pyrimidine-2,4-diamine]	> 5 µM
Nc1cc(N2CCCC(c3cnc4ccccn34)C2)nc(N)n1 (single isomer, unassigned) [Compound 115, (S/R)-6-(3-(imidazo[1,2-a]pyridin-3-yl)piperidin-1-yl)pyrimidine-2,4-diamine]	> 5 µM
CC(C)c1cc(N2CCCC(c3cnc4ccccn34)C2)nc(N)n1 (stereo not shown) [Compound 178, 4-(3-(imidazo[1,2-a]pyridin-3-yl)piperidin-1-yl)-6-isopropylpyrimidin-2-amine]	< 0.5 µM
Brc1ccccc1C1CN(c2ccnc3[nH]cnc23)CCN1 (single isomer, unassigned) [Compound 35, (R/S)-7-(3-(2-bromophenyl)piperazin-1-yl)-3H-imidazo[4,5-b]pyridine]	0.5 to 5 µM
CC(C)c1cc(N2CCCC(n3cnc4ccccc43)C2)nc(N)n1 (stereo not shown) [Compound 256, 4-(3-(1H-benzo[d]imidazol-1-yl)piperidin-1-yl)-6-isopropylpyrimidin-2-amine]	< 0.5 µM
CC(C)c1cc(N2CCCC(O)(c3ncn4ccccc34)C2)nc(N)n1 (stereo not shown) [Compound 224, 1-(2-amino-6-isopropylpyrimidin-4-yl)-3-(imidazo[1,5-a]pyridin-1-yl)piperidin-3-ol]	> 5 µM
Nc1nc(N2CCNC(c3cnc4ccccn34)C2)c2[nH]ccc2n1 (stereo not shown) [Compound 55, 4-(3-(imidazo[1,2-a]pyridin-3-yl)piperazin-1-yl)-5H-pyrrolo[3,2-d]pyrimidin-2-amine]	0.5 to 5 µM
CC(C)c1cc(N2CCNC(c3cc(C(=O)NCCN(C)C)ccc3Br)C2)nc(N)n1 (single isomer, unassigned) [Compound 20, R or S-3-(4-(2-amino-6-isopropylpyrimidin-4-yl)piperazin-2-yl)-4-bromo-N-(2-(dimethylamino)ethyl)benzamide]	0.5 to 5 µM
CC(C)c1cc(N2CCCC(c3cnc4ccccn34)C2)ncn1 (single isomer, unassigned) [Compound 149, (S/R)-3-(1-(6-isopropylpyrimidin-4-yl)piperidin-3-yl)imidazo[1,2-a]pyridine]	> 5 µM
Nc1nccc2ccc(-c3ccc4[nH]nc(C(=O)NC[C@H]5CC[C@@H](O)CC5)c4c3)cc12 [Compound 333, 5-(1-aminoisoquinolin-7-yl)-N-((cis-4-hydroxycyclohexyl)methyl)-1H-indazole-3-carboxamide]	< 0.5 µM
Nc1nc2c(c(N3CCCC(c4ccn[nH]4)C3)n1)CCC2 (stereo not shown) [Compound 195, 4-(3-(1H-pyrazol-5-yl)piperidin-1-yl)-6,7-dihydro-5H-cyclopenta[d]pyrimidin-2-amine]	> 5 µM
CC(C)c1nc(N)cc(N2CCOC(c3ccccc3Br)C2)n1 (single isomer, unassigned) [Compound 73, (R/S)-6-(2-(2-bromophenyl)morpholino)-2-isopropylpyrimidin-4-amine]	0.5 to 5 µM
CC(C)c1cc(N2CCNC(c3ccc(O)cc3Br)C2)nc(N)n1 (stereo not shown) [Compound 164, 4-(4-(2-amino-6-isopropylpyrimidin-4-yl)piperazin-2-yl)-3-bromophenol]	< 0.5 µM
COC1CCN(C(=O)c2n[nH]c3ccc(-c4ccc5ccnc(N)c5c4)cc23)CC1 [Compound 332, (5-(1-aminoisoquinolin-7-yl)-1H-indazol-3-yl)(4-methoxypiperidin-1-yl)methanone]	< 0.5 µM
Nc1cc(N2CCCC(c3ncn4ccccc34)C2)nc(N)n1 (stereo not shown) [Compound 225, 6-(3-(imidazo[1,5-a]pyridin-1-yl)piperidin-1-yl)pyrimidine-2,4-diamine]	0.5 to 5 µM
CN(C)CCCNC(=O)c1nnc(-c2cc(O)c3ncccc3c2)[nH]1 [Compound 262, N-(3-(dimethylamino)propyl)-5-(8-hydroxyquinolin-6-yl)-4H-1,2,4-triazole-3-carboxamide]	< 0.5 µM
CC(C)c1cc(N2CCN(C)C(c3cnc4ccccn34)C2)nc(N)n1 (single isomer, unassigned) [Compound 105, (S/R)-4-(3-(imidazo[1,2-a]pyridin-3-yl)-4-methylpiperazin-1-yl)-6-isopropylpyrimidin-2-amine]	> 5 µM
Nc1cc(N2CCNC(c3cc(C(F)(F)F)ccc3Br)C2)nc(N)n1 (single isomer, unassigned) [Compound 11, (R/S)-6-(3-(2-bromo-5-(trifluoromethyl)phenyl)piperazin-1-yl)pyrimidine-2,4-diamine]	0.5 to 5 µM
CC(C)c1cc(NCCc2c[nH]c3ccccc23)nc(N)n1 [Compound 203, N4-(2-(1H-indol-3-yl)ethyl)-6-isopropylpyrimidine-2,4-diamine]	> 5 µM

Other lines, results leading:

IC50	Compound
> 5 µM	CCc1cc(N2CCNC(c3cnc4ccccn34)C2)nc(N)n1 (single isomer, unassigned) [Compound 27, (R/S)-4-ethyl-6-(3-(imidazo[1,2-a]pyridin-3-yl)piperazin-1-yl)pyrimidin-2-amine]
0.5 to 5 µM	CC(C)c1cc(N2CCCC(c3n[nH]c4ccccc34)C2)nc(N)n1 (stereo not shown) [Compound 251, 4-(3-(1H-indazol-3-yl)piperidin-1-yl)-6-isopropylpyrimidin-2-amine]
0.5 to 5 µM	Nc1nc(C2CC2)cc(N2CCN[C@H](c3ccccc3Br)C2)n1 (stereo in doubt) [Compound 132, (R/S)-4-(3-(2-bromophenyl)piperazin-1-yl)-6-cyclopropylpyrimidin-2-amine]
< 0.5 µM	CN(C)CCCNC(=O)c1ncc(-c2cc(O)c3ncccc3c2)[nH]1 [Compound 275, N-(3-(dimethylamino)propyl)-5-(8-hydroxyquinolin-6-yl)-1H-imidazole-2-carboxamide]
> 5 µM	Nc1nc2c(c(N3CCCC(c4ccn[nH]4)C3)n1)CSC2 (stereo not shown) [Compound 199, 4-(3-(1H-pyrazol-5-yl)piperidin-1-yl)-5,7-dihydrothieno[3,4-d]pyrimidin-2-amine]
0.5 to 5 µM	CN(C)CCCNC(=O)c1c(F)cc(-c2cc(O)c3ncccc3c2)cc1F [Compound 314, N-(3-(dimethylamino)propyl)-2,6-difluoro-4-(8-hydroxyquinolin-6-yl)benzamide]
> 5 µM	Cc1cc(N2CCCC(Nc3ccc(=O)[nH]c3)C2)nc(N)n1 (stereo not shown) [Compound 202, 5-((1-(2-amino-6-methylpyrimidin-4-yl)piperidin-3-yl)amino)pyridin-2(1H)-one]
> 5 µM	Nc1nc2c(c(N3CCCC(c4nnc5ccccn45)C3)n1)SCC2 (stereo not shown) [Compound 191, 4-(3-([1,2,4]triazolo[4,3-a]pyridin-3-yl)piperidin-1-yl)-6,7-dihydrothieno[3,2-d]pyrimidin-2-amine]
> 5 µM	Nc1cc(N2CCOC(c3cnc4ccccn34)C2)nc(N)n1 (single isomer, unassigned) [Compound 137, (S/R)-6-(2-(imidazo[1,2-a]pyridin-3-yl)morpholino)pyrimidine-2,4-diamine]
> 5 µM	Brc1ccccc1[C@H]1CN(c2ccnc3[nH]cnc23)CCN1 (racemic) [Compound 34, (S/R)-7-(3-(2-bromophenyl)piperazin-1-yl)-3H-imidazo[4,5-b]pyridine]
0.5 to 5 µM	Nc1cc(N2CCCC(c3cnc4ccccn34)C2)nc(N)n1 (racemic) [Compound 116, (R/S)-6-(3-(imidazo[1,2-a]pyridin-3-yl)piperidin-1-yl)pyrimidine-2,4-diamine]
< 0.5 µM	CC(C)c1cc(N2CCNC(c3cccc(F)c3Br)C2)nc(N)n1 (stereo not shown) [Compound 169, 4-(3-(2-bromo-3-fluorophenyl)piperazin-1-yl)-6-isopropylpyrimidin-2-amine]
< 0.5 µM	Nc1nccc2ccc(-c3ccc4[nH]nc(C(=O)N5CCC(N)CC5)c4c3)cc12 [Compound 339, (5-(1-aminoisoquinolin-7-yl)-1H-indazol-3-yl)(4-aminopiperidin-1-yl)methanone]
> 5 µM	CC(C)c1cc(N2CCn3cncc3C2)nc(N)n1 [Compound 182, 4-(5,6-dihydroimidazo[1,5-a]pyrazin-7(8H)-yl)-6-isopropylpyrimidin-2-amine]
< 0.5 µM	CN(C)CCCNC(=O)c1csc(-c2cc(O)c3ncccc3c2)c1 [Compound 281, N-(3-(dimethylamino)propyl)-5-(8-hydroxyquinolin-6-yl)thiophene-3-carboxamide]
< 0.5 µM	CN(C)[C@H]1CC[C@H](NC(=O)c2ccc(-c3cc(O)c4ncccc4c3)cc2)CC1 [Compound 287, N-(trans-4-(dimethylamino)cyclohexyl)-4-(8-hydroxyquinolin-6-yl)benzamide]
0.5 to 5 µM	Nc1nc2c(c(N3CCNC(c4ccccc4Br)C3)n1)COCC2 (stereo not shown) [Compound 184, 4-(3-(2-bromophenyl)piperazin-1-yl)-7,8-dihydro-5H-pyrano[4,3-d]pyrimidin-2-amine]
